Assay results from US20250313563A1, “GLYCOGEN SYNTHASE KINASE 3 INHIBITORS AND USES THEREOF” (The Broad Institute, Inc., priority 2022, published 2025).
Like-named read-outs stand apart in the source and are kept apart here.

Key:
[1] = target: GSK3α (GST-full length GSK3α) (Homo sapiens (Human), UniProt P49840); assay: GSK3α TR-FRET kinase assay; format: biochemical
How it was run: (§1)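 Readout: anti-pSer641 Tb antibody/streptavidin-d2 signal after 60 min, expressed as 665/615 ratio and fitted versus log concentration for IC50. Enzyme: 1 nM GST-GSK3 (α or β), compound-preincubated 30 min. Conditions: pH 7.5 Tris buffer with MgCl2, DTT, BSA; ATP at 4 or 2 μM, or 1 mM; 100 min.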

[2] = target: GSK3b (GST-full length GSK3b) (Homo sapiens (Human), UniProt P49841); assay: GSK3b TR-FRET kinase assay; format: biochemical
How it was run: as §1

[3] = 1 nM GSK3α, 4 μM ATP, 30 minute preincubation, Table 16, read-out: GSK3-A TR-FRET BIOCHEMICAL (TR-FRET), IC50
[4] = read-out: GSK3-A (TR-FRET 1 mM ATP), GMean, IC50, 1 mM ATP, geometric mean
[5] = 1 nM GSK3b, 2 μM ATP, 30 minute preincubation, Table 16, read-out: GSK3-B TR-FRET BIOCHEMICAL (TR-FRET), IC50
[6] = read-out: GSK3-B (TR-FRET 1 mM ATP), GMean, IC50, 1 mM ATP, geometric mean
[7] = 1 nM GSK3α, 4 μM ATP, 30 minute preincubation, Table 16, read-out: GSK3-A TR-FRET BIOCHEMICAL (TR-FRET)
[8] = 1 nM GSK3b, 2 μM ATP, 30 minute preincubation, Table 16, read-out: GSK3-B TR-FRET BIOCHEMICAL (TR-FRET)

Chain of GSK3b (GST-full length GSK3b) (P49841 whole entry): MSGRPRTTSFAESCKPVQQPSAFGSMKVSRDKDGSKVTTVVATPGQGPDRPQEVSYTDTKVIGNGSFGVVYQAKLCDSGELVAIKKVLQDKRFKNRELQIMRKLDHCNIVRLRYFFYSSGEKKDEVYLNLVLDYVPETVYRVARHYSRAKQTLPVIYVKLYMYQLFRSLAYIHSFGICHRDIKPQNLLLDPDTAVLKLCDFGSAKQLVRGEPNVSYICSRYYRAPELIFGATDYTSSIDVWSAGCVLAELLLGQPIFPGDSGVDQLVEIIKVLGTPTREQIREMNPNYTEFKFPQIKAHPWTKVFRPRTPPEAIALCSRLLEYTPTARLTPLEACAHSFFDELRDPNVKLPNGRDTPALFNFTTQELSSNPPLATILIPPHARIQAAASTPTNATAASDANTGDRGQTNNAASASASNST
Chain of GSK3α (GST-full length GSK3α) (P49840 whole entry): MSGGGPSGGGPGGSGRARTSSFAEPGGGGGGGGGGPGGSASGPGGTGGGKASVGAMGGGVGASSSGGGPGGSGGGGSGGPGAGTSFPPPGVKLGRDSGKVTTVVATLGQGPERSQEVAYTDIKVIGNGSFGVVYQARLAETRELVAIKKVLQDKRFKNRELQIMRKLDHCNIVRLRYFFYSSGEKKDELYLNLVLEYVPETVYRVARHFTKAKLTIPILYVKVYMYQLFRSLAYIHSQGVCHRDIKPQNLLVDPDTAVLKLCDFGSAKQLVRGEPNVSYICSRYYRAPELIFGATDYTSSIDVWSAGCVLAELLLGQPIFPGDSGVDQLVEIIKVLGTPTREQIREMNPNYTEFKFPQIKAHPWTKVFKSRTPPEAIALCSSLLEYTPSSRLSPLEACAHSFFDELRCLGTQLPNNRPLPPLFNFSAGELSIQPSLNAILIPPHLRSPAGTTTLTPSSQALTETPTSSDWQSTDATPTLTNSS

| IC50 [1, 3] [nM] | IC50 [2, 5] [nM] | IC50 [1, 7] [nM] | IC50 [2, 8] [nM] | SMILES | other results |
| --- | --- | --- | --- | --- | --- |
|  |  |  |  | CCC1(c2cccc(C(F)(F)F)c2)C2=C(CC(c3ccccc3)NC2=O)Nc2n[nH]cc21 (centres unmarked) [Compound 917284] | IC50 ([1]; 1 nM GSK3α, 4 μM ATP, 30 minute preincubation, read-out: GSK3-A TR-FRET BIOCHEMICAL (TR-FRET), IC50): 100 to 1000 nM; IC50 ([2]; 1 nM GSK3b, 2 μM ATP, 30 minute preincubation, read-out: GSK3-B TR-FRET BIOCHEMICAL (TR-FRET), IC50): 1000 to 5000 nM |
| 100 to 1000 | 1000 to 5000 |  |  | CCC1(c2cccc(-c3ccnc(C)c3)c2)C2=C(CC(C)(C)CC2=O)Nc2n[nH]c(C(F)(F)F)c21 (centres unmarked) [Compound 917289] | IC50 [1, 4]: > 5000 nM; IC50 [2, 6]: > 5000 nM |
| 100 to 1000 | 100 to 1000 |  |  | CCC1(c2cccc(-c3ccncc3)c2)C2=C(CC(C)(C)CC2=O)Nc2n[nH]c(C(F)(F)F)c21 (centres unmarked) [Compound 917292] | IC50 [1, 4]: > 5000 nM; IC50 [2, 6]: > 5000 nM |
|  |  | 100 to 1000 | 1000 to 5000 | CCC1(c2cccc(C(F)(F)F)c2)C2=C(CN(C)C2=O)Nc2n[nH]cc21 (centres unmarked) [Compound 917294] |  |
|  |  | 100 to 1000 | 1000 to 5000 | CCC1(c2cccc(C(F)(F)F)c2)C2=C(Nc3n[nH]cc31)C(C)NC2=O (centres unmarked) [Compound 917295] |  |
|  |  | > 5000 | > 5000 | CC[C@@]1(c2cccc(C(F)(F)F)c2)C2=C(Nc3n[nH]cc31)C(C)(C)N(C)C2=O [Compound 918251] |  |
|  |  | 100 to 1000 | 100 to 1000 | COC(=O)C1CCC2(CC1)C1=C(CC(C)(C)CC1=O)Nc1n[nH]cc12 (centres unmarked) [Compound 918270] |  |
| ≤ 100 | ≤ 100 |  |  | CCC1(c2cccc(S(=O)(=O)CCOC)c2)C2=C(CC(C)(C)CC2=O)Nc2n[nH]cc21 (centres unmarked) [Compound 918271] |  |
| 100 to 1000 | 100 to 1000 |  |  | CCC1(c2cccc(N(C)c3ccc(C)nc3)c2)C2=C(CC(C)(C)CC2=O)Nc2n[nH]cc21 (centres unmarked) [Compound 918272] |  |
| ≤ 100 | ≤ 100 |  |  | CCC1(c2cccc(S(=O)(=O)C3CCCCC3)c2)C2=C(CC(C)(C)CC2=O)Nc2n[nH]cc21 (centres unmarked) [Compound 918273] |  |
| ≤ 100 | 100 to 1000 |  |  | CCC1(c2cccc(N(C)c3cccc(F)n3)c2)C2=C(CC(C)(C)CC2=O)Nc2n[nH]cc21 (centres unmarked) [Compound 918274] |  |
|  |  | ≤ 100 | ≤ 100 | CC1(C)CC(=O)C2=C(C1)Nc1n[nH]cc1C21CN(S(=O)(=O)C2CCCCC2)C1 [Compound 918275] |  |
|  |  | ≤ 100 | ≤ 100 | COc1cccc(S(=O)(=O)N2CC3(C2)C2=C(CC(C)(C)CC2=O)Nc2n[nH]cc23)c1 [Compound 918276] |  |
|  |  | ≤ 100 | 100 to 1000 | COC(=O)C1CCC2(CC1)C1=C(CC(C)(C)CC1=O)Nc1n[nH]cc12 (centres unmarked) [Compound 918277] |  |
|  |  | ≤ 100 | ≤ 100 | CC1(C)CC(=O)C2=C(C1)Nc1n[nH]cc1C21CN(S(=O)(=O)c2cccc(F)c2)C1 [Compound 918278] |  |
| ≤ 100 | ≤ 100 |  |  | CCC1(c2cccc(N3CCOc4ncccc43)c2)C2=C(CC(C)(C)CC2=O)Nc2n[nH]cc21 (centres unmarked) [Compound 918279] |  |
| ≤ 100 | ≤ 100 |  |  | CCC1(c2cccc(N3CCOc4ccccc43)c2)C2=C(CC(C)(C)CC2=O)Nc2n[nH]cc21 (centres unmarked) [Compound 918280] |  |
| ≤ 100 | 100 to 1000 |  |  | CCC1(c2cccc(-c3ccnc(C)c3F)c2)C2=C(CC(C)(C)CC2=O)Nc2n[nH]cc21 (centres unmarked) [Compound 918281] |  |
|  |  | ≤ 100 | ≤ 100 | CC1(C)CC2=C(C(=O)[C@H]1F)[C@]1(CC[C@H](C(F)(F)F)CC1)c1c[nH]nc1N2 [Compound 918282] |  |
|  |  | ≤ 100 | ≤ 100 | CC1(C)CC2=C(C(=O)[C@@H]1F)[C@]1(CC[C@H](C(F)(F)F)CC1)c1c[nH]nc1N2 [Compound 918283] |  |
|  |  | ≤ 100 | ≤ 100 | CC1(C)CC(=O)C2=C(Nc3n[nH]cc3[C@]23CC[C@@H](C(F)(F)F)CC3)[C@@H]1F [Compound 918284] |  |
|  |  | ≤ 100 | 100 to 1000 | CC1(C)CC(=O)C2=C(Nc3n[nH]cc3[C@]23CC[C@@H](C(F)(F)F)CC3)[C@H]1F [Compound 918285] | IC50 ([1]; GSK3-A (TR-FRET 1 mM ATP), GMean, IC50, 1 mM ATP, geometric mean): 1000 to 5000 nM; IC50 ([2]; GSK3-B (TR-FRET 1 mM ATP), GMean, IC50, 1 mM ATP, geometric mean): > 5000 nM |
|  |  | 100 to 1000 | 100 to 1000 | C[C@@H]1C[C@]2(CCN1S(C)(=O)=O)C1=C(CC(C)(C)CC1=O)Nc1n[nH]cc12 [Compound 918315] |  |
|  |  | ≤ 100 | 100 to 1000 | C[C@@H]1C[C@@]2(CCN1S(C)(=O)=O)C1=C(CC(C)(C)CC1=O)Nc1n[nH]cc12 [Compound 918316] |  |
| ≤ 100 | ≤ 100 |  |  | CCC1(c2cccc(N3CCCC3C)c2)C2=C(CC(C)(C)CC2=O)Nc2n[nH]cc21 (centres unmarked) [Compound 918321] |  |
